{"source": "paper PMC9858427", "about": "“Design, synthesis and biological evaluation of 2-((4-sulfamoylphenyl)amino)-pyrrolo[2,3-d]pyrimidine derivatives as CDK inhibitors” (Journal of Enzyme Inhibition and Medicinal Chemistry, 2023)", "key": {"MIA PaCa-2 cells": {"system": "MIA PaCa-2 cells", "assay": "MTT proliferation assay in MIA PaCa-2 cells", "type": "cell-based, human", "settings": "Homo sapiens, MIA PaCa-2, 72 h drug exposure", "experimental": "(§1) The human pancreatic carcinoma MIA PaCa-2 was purchased from China Centre for Type Culture Collection, AsPC-1 and BxPC-3 cell Lines were purchased from Cell Centre of the Institute of Basic Medical Sciences, Chinese Academy of Medical Sciences and Peking Union Medical College. PANC-1 was kindly provided by Nankai Hospital (Tianjin, China). These cancer cell lines were cultured according to the manufacturer’s instruction.\n(§2) Then 3-fold diluted concentrations of tested compound were added respectively which was dissolved by DMSO in the ratio of 1:1000. After indicated incubation period, MTT was added to each well and incubated for 4 h at 37 °C. Then, the supernatant was discarded gently, and the precipitate was dissolved in 100 µL of DMSO in each well. The absorbance (A) at 570 nm was detected with a microplate reader (Multiskan MK3; Thermo Fisher Scientific, MA, USA). Vehicle-treated cells were served as the control for the calculation of relative cell viability (%) of treated group at single concentration. IC50 value was calculated directly from the inhibition curve of serial dilution of test compound and was expressed as mean ± SD using the SPSS statistical software (SPSS17.0 Inc., Chicago, IL, USA)."}, "AsPC-1": {"system": "AsPC-1", "assay": "MTT proliferation assay in AsPC-1 cells", "type": "cell-based", "settings": "Homo sapiens, ASPC1; 72 h drug exposure", "experimental": "as §1\nas §2, with “Cells were planted in 96-well plates at a density of 3000–4000 cells per well and incubated at 37 °C in a humidified CO2 incubator for 24 h. Then 3-fold” for “Then 3-fold”"}, "PANC-1": {"system": "PANC-1", "assay": "MTT proliferation assay in PANC-1 cells", "type": "cell-based", "settings": "Homo sapiens, 72 h drug exposure", "experimental": "as §1\nas §2, with “Cells were planted in 96-well plates at a density of 3000–4000 cells per well and incubated at 37 °C in a humidified CO2 incubator for 24 h. Then 3-fold” for “Then 3-fold”"}, "CDK4": {"target": "CDK4 (Homo sapiens, UniProt P11802)", "sequence (P11802 whole entry)": "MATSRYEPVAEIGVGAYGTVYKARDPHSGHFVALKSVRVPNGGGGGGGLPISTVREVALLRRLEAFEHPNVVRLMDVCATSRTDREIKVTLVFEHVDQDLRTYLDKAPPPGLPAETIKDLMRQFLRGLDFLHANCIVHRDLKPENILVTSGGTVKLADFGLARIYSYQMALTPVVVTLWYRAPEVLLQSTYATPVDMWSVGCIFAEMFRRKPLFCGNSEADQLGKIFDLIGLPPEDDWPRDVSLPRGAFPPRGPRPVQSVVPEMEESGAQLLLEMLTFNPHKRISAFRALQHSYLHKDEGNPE", "sequence (P30281 whole entry partner)": "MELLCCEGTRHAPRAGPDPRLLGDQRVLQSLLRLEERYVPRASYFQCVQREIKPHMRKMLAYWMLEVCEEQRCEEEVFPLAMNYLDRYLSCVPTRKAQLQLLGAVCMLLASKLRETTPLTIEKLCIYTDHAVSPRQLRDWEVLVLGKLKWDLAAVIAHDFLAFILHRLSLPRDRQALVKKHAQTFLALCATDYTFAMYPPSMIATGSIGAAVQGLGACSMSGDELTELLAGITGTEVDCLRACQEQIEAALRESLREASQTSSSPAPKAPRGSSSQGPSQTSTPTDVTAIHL", "assay": "CDK4 kinase IC50, Mobility shift assay", "type": "biochemical", "experimental": "(§3) CDK kinase activity (IC50 values and inhibitory rate at single concentration) was measured using the kinase profiling services (Shanghai ChemPartner Co., Ltd). Compounds were sent to ChemPartner as a solution in DMSO at concentration of 10 mM."}, "CDK9": {"target": "CDK9 (Homo sapiens, UniProt P50750)", "sequence (P50750 whole entry)": "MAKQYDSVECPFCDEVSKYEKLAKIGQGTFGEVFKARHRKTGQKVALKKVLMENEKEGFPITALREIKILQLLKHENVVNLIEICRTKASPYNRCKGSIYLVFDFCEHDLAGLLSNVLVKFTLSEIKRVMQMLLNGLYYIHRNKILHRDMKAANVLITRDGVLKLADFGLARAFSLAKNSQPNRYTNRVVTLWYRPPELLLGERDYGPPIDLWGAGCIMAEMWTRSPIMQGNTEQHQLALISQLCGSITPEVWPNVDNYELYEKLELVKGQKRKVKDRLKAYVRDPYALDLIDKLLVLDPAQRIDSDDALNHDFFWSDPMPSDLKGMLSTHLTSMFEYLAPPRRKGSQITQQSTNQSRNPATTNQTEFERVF", "sequence (O60563 whole entry partner)": "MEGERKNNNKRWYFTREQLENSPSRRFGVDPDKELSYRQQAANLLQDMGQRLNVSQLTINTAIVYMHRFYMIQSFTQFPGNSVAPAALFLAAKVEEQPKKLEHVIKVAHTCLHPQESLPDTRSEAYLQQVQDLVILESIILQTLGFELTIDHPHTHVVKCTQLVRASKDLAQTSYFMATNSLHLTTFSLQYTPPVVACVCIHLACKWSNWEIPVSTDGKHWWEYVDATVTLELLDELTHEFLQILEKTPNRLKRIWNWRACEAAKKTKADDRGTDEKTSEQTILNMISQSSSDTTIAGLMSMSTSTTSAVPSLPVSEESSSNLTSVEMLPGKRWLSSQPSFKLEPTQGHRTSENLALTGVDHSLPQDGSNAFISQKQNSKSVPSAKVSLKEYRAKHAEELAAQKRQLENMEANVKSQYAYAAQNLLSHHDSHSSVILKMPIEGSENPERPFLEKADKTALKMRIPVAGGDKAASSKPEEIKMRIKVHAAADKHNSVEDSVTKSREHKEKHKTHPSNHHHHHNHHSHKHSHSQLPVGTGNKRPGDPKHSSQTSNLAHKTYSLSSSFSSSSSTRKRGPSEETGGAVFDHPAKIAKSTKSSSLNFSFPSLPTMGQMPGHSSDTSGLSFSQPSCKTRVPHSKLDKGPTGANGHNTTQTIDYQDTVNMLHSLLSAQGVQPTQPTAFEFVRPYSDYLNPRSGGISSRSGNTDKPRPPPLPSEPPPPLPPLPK", "assay": "CDK9 kinase IC50, Mobility shift assay", "type": "biochemical", "experimental": "as §3"}, "Oral PK study in rats": {"assay": "Oral PK study in rats", "type": "in vivo", "settings": "male, SD, rat, plasma, 30 mg/kg", "experimental": "(§4) Synthetic compound was administered as a suspension or solution in the saline with 5% DMSO and 5% Solutol. GCTB was dissolved in saline. All of the experiments were approved by the Institutional Animal Care and Use Committee of Institute of Medicinal Biotechnology. All experiments were carried out under ethics committee–approved protocols and in compliance with the guidelines for the care of laboratory animals of Institute of Medicinal Biotechnology, CAMS.\nSD rats were purchased from Beijing Vital River Laboratory Animal Technology Co., Ltd and randomly divided into three groups (n = 3, male). The animals were housed under standard conditions and fastened for 12 h before the treatment. They had free access to water and consumed a standard laboratory diet from 4 h after administration. Blood was taken from the orbital venous plexus at 0, 0.083, 0.25, 0.5, 1, 2, 4, 6, 8, and 24 h after intragastric administration of the test compound (30 mg/kg). The blood samples were collected into heparin anticoagulated EP tubes and centrifuged at 8000 r/min for 5 min at 2−8 °C; the plasma was separated and stored at −70 °C for use. Plasma was centrifuged at 4000 rpm for 10 min at 2−8 °C and stored at −70 °C until analysis. Plasma samples were analysed by LC-MS/MS (AB Sciex API4000 QTRAP) equipped with an ESI ion resource and Analyst 1.5.1 software. The noncompartmental model analysis was used for calculating pharmacokinetic parameters with the WinNolin professional v6.3 program (Pharsight, USA)."}, "[1]": {"system": "AsPC-1 cell-derived xenograft", "assay": "AsPC-1 cell-derived xenograft mice model, in vivo efficacy", "set-up": "species or system BALB/C nude mice", "settings": "five days on two days off per week", "experimental": "as §4\nAsPC-1 (5 × 10^7) cells were injected subcutaneously into 5-week-old female BALB/C nude mice (Beijing Huafukang Bioscience CO. Inc, Beijing, China). After two weeks, mice were omogenizamised and treated with vehicle, gemcitabine (GCTB), or test compound. Blank solvent and test compound was administered by oral gavage (10 ml/kg) with once daily of five days and followed by 2 days off in each week, GCTB was given once a week by 50 mg/kg intraperitoneal injection. Mice were inspected daily for clinical signs, both tumour diameters and body weight were determined 3 times weekly. Tumour volumes were calculated according to the formula “tumor volume (V) = length × width^2/2”. Median TGI values were calculated as follows: TGI = 100 × [1-(Vtreated group at day20-Vtreated group at day1)/(Vvehicle group at day20-Vvehicle group at day1)]. Data were plotted as average with SD in the graphical representation of tumour growth. The p values obtained from the two-way ANOVA analysis. Meanwhile, main organs of mice were collected, formalin-fixed and paraffin-embedded for pathological analysis by H&E dyeing. For drug concentration determination, blood and tumour tissues were collected at indicated time after single administration. Standard curve of test compound was established in the acquisition mode of SIM using a SHIMADZU LC-MS instrument. […] After centrifugation at 10 × 10^3 for 5 min, the supernatant was injected directedly into LC-MS instrument for quantification of drug concentration. […] After centrifugation under same condition as plasma samples, supernatant was separated and injected into LC-MS for quantification."}, "[2]": {"assay": "Solubility / precipitation observations", "type": "physicochemical"}, "[3]": {"assay": "Body weight and H&E pathology of main organs in xenograft mice", "type": "in vivo, BALB/C nude mice", "experimental": "AsPC-1 (5 × 10^7) cells were injected subcutaneously into 5-week-old female BALB/C nude mice (Beijing Huafukang Bioscience CO. Inc, Beijing, China). After two weeks, mice were omogenizamised and treated with vehicle, gemcitabine (GCTB), or test compound. Blank solvent and test compound was administered by oral gavage (10 ml/kg) with once daily of five days and followed by 2 days off in each week, GCTB was given once a week by 50 mg/kg intraperitoneal injection. Mice were inspected daily for clinical signs, both tumour diameters and body weight were determined 3 times weekly. Tumour volumes were calculated according to the formula “tumor volume (V) = length × width^2/2”. Median TGI values were calculated as follows: TGI = 100 × [1-(Vtreated group at day20-Vtreated group at day1)/(Vvehicle group at day20-Vvehicle group at day1)]. Data were plotted as average with SD in the graphical representation of tumour growth. The p values obtained from the two-way ANOVA analysis. Meanwhile, main organs of mice were collected, formalin-fixed and paraffin-embedded for pathological analysis by H&E dyeing. For drug concentration determination, blood and tumour tissues were collected at indicated time after single administration. Standard curve of test compound was established in the acquisition mode of SIM using a SHIMADZU LC-MS instrument. Blood kept in anticoagulant tube coated with heparin sodium was centrifuged to provide the supernatant, which was followed by added with 3-fold acetonitrile to precipitate plasma protein. After centrifugation at 10 × 10^3 for 5 min, the supernatant was injected directedly into LC-MS instrument for quantification of drug concentration. As for tumour tissues, omogenizationation (Precellys Evolution) was done after weighed accurately and added with 3-fold saline. After centrifugation under same condition as plasma samples, supernatant was separated and injected into LC-MS for quantification."}}, "note": "Read-outs that look alike come from different tables or passages of the source."}
{"smiles": "CN(C)C(=O)c1cc2cnc(Nc3ccc(S(N)(=O)=O)cc3)nc2n1C1CCCC1", "note": "[compound 2g, 7-Cyclopentyl-N,N-dimethyl-2-((4-sulfamoylphenyl)amino)-7H-pyrrolo[2,3-d]pyrimidine-6-carboxamide]", "values": [{"measurement": "IC50", "setting": "MIA PaCa-2 cells", "result": "0.52 ± 0.67", "unit": "µM"}, {"measurement": "IC50", "setting": "AsPC-1", "result": "1.4 ± 0.034", "unit": "µM"}, {"measurement": "IC50", "setting": "PANC-1", "result": "11 ± 4.97", "unit": "µM"}, {"measurement": "IC50", "setting": "CDK4", "result": 12, "unit": "nM"}, {"measurement": "IC50", "setting": "CDK9", "result": 5, "unit": "nM"}, {"measurement": "Cmax", "setting": "Oral PK study in rats; single oral administration, read-out: maximum plasma drug concentration (Cmax)", "result": 1160, "unit": "ng/mL"}, {"measurement": "AUC", "setting": "Oral PK study in rats; single oral administration, read-out: systematic exposure (AUC0‑t)", "result": 4620, "unit": "ng·h/mL"}, {"measurement": "AUC(0-inf)", "setting": "Oral PK study in rats; oral, n = 3", "result": "5080 ± 268", "unit": "ng·h/mL"}, {"measurement": "AUC(0-t)", "setting": "Oral PK study in rats; oral, n = 3", "result": "4620 ± 145", "unit": "ng·h/mL"}, {"measurement": "MRT", "setting": "Oral PK study in rats; oral, n = 3", "result": 7.72, "unit": "h"}, {"measurement": "Tmax", "setting": "Oral PK study in rats; oral, n = 3", "result": 0.5, "unit": "h"}, {"measurement": "half-life", "setting": "Oral PK study in rats; oral, n = 3", "result": 7.54, "unit": "h"}, {"measurement": "Cmax", "setting": "Oral PK study in rats; oral, n = 3, read-out: Cmax", "result": 2700, "unit": "nM"}, {"measurement": "tumour growth inhibition (TGI)", "setting": "[1]; oral 30 mg/kg, 3-week administration", "result": 12, "unit": "%"}, {"measurement": "reduction of tumour volume compared to vehicle group", "setting": "[1]; oral 60 mg/kg, 3 weeks", "result": "up to 46%"}, {"measurement": "solubility (in words)", "setting": "[2]", "result": "much poorer than 5b"}, {"measurement": "pathological change in main organs (H&E)", "setting": "[3]; after 3-week treatment", "result": "no obvious pathological change"}, {"measurement": "body weight change", "setting": "[3]; high dose of 2g, first ten days of administration", "result": "obvious decrease of body weight"}]}
